Assay results published in BindingDB's records for doi:10.7270/Q2TX3CSC (Vanderbilt Screening Center for GPCRs, Ion Channels and …, 2009).

What follows are compounds tested against T1, Solute carrier family 12 member 5 (Homo sapiens, UniProt Q9H2X9) (assay: KCC2 modulator potency by thallium flux, dose response, cell-based, HEK293 KCC2, FluoZin-2 fluorescence (AID 1736)). Details: not given.
T1 sequence (Q9H2X9 whole entry): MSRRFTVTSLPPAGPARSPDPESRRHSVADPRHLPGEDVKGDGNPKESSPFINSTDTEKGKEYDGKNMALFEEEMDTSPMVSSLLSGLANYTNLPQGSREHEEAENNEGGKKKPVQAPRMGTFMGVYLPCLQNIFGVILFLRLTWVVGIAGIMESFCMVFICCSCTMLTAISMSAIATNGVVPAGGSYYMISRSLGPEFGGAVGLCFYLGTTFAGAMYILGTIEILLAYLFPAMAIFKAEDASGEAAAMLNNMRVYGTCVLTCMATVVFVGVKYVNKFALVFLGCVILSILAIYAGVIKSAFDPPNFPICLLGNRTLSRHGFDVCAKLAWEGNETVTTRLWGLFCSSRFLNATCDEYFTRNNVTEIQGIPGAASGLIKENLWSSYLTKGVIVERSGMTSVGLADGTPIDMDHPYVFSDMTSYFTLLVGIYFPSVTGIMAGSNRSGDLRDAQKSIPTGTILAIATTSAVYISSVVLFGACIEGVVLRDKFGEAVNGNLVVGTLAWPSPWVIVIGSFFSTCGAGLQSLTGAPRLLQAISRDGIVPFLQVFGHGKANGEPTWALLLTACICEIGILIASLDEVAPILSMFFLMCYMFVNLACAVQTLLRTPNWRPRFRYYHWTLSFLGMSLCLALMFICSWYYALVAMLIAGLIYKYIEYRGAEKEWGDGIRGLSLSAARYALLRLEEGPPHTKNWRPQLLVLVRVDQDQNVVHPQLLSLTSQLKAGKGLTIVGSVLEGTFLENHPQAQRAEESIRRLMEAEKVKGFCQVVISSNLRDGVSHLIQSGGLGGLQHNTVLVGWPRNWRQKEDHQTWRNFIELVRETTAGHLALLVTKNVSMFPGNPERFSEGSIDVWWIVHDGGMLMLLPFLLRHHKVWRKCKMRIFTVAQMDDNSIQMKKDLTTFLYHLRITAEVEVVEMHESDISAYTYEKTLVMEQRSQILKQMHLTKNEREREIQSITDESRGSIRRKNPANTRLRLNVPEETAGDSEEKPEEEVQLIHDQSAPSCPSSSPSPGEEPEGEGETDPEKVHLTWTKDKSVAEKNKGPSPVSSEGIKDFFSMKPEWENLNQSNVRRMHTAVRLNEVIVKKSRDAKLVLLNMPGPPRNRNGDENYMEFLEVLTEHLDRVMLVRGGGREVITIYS

Point of comparison: `O=C(C1CCN(S(=O)(=O)c2cccc3nsnc23)CC1)N1CCc2ccccc2C1` [2-{[1-(2,1,3-benzothiadiazol-4-ylsulfonyl)piperidin-4-yl]carbonyl}-1,2,3,4-tetrahydroisoquinoline], EC50 69.7 µM. Against it:
- COc1ccc(-n2cnnc2SCC(=O)Nc2cc(S(=O)(=O)N3CCCCC3)ccc2C)cc1 [2-[[4-(4-methoxyphenyl)-1,2,4-triazol-3-yl]sulfanyl]-N-(2-methyl-5-piperidin-1-ylsulfonyl-phenyl)ethanamide] — 4.6-fold lower, 15.1 µM
- Cc1ccccc1-c1nc(C[S+]([O-])CC(=O)NCc2ccccc2)c(C)o1 (stereo not drawn) [2-[[5-methyl-2-(2-methylphenyl)-1,3-oxazol-4-yl]methylsulfinyl]-N-(phenylmethyl)ethanamide] — 9.7-fold lower, 7.15 µM
- Cc1ccccc1-c1nc(CS(=O)(=O)CC(=O)NCc2ccccc2)c(C)o1 [2-[[5-methyl-2-(2-methylphenyl)-1,3-oxazol-4-yl]methylsulfonyl]-N-(phenylmethyl)ethanamide] — 5.9-fold lower, 11.8 µM
- Cc1ccc(C(=O)CC=Nc2ccccc2C(N)=O)cc1 [2-[[(E)-3-(4-methylphenyl)-3-oxidanylidene-prop-1-enyl]amino]benzamide] — 21-fold lower, 3.36 µM
- COc1ccc(-c2cc(CNC(=O)CN(C)Cc3ccccc3)on2)cc1 [2-[benzyl(methyl)amino]-N-[[3-(4-methoxyphenyl)-1,2-oxazol-5-yl]methyl]acetamide] — 13-fold lower, 5.23 µM
- CN(C)S(=O)(=O)c1cccc(NC(=O)c2cc3c(cc2Cl)N2CCCCC=C2NS3(=O)=O)c1 [2-chloranyl-N-[3-(dimethylsulfamoyl)phenyl]-5,5-bis(oxidanylidene)-8,9,10,11-tetrahydro-7H-azepino[2,1-c][1,2,4]benzothiadiazine-3-carboxamide] — 4-fold higher, 281 µM
- Cc1ccc(-c2csc(NC(=O)CCNC(=O)c3ccccc3Cl)n2)cc1 [2-chloranyl-N-[3-[[4-(4-methylphenyl)-1,3-thiazol-2-yl]amino]-3-oxidanylidene-propyl]benzamide] — 28-fold lower, 2.49 µM
- O=C(NC(=S)Nc1nc(-c2cccc([N+](=O)[O-])c2)cs1)c1ccccc1Cl [2-chloranyl-N-[[4-(3-nitrophenyl)-1,3-thiazol-2-yl]carbamothioyl]benzamide] — 7.3-fold lower, 9.6 µM
- COc1ccccc1C(=O)NC1CCN(C(=S)NCCc2ccccc2)CC1 [2-methoxy-N-[1-(2-phenylethylcarbamothioyl)piperidin-4-yl]benzamide] — 10-fold lower, 6.66 µM
- Cc1cc([N+](=O)[O-])ccc1NCc1ccccc1 [2-methyl-4-nitro-N-(phenylmethyl)aniline] — 40-fold lower, 1.74 µM
- O=C(NN=Cc1ccccn1)c1ccccc1O [2-oxidanyl-N-(pyridin-2-ylmethylideneamino)benzamide] — 2.4-fold lower, 29.2 µM
- Cc1noc(/C=C/c2ccco2)c1S(=O)(=O)N1CCC(C(=O)N2CCc3ccccc3C2)CC1 [2-{[1-({5-[(E)-2-(2-furyl)vinyl]-3-methylisoxazol-4-yl}sulfonyl)piperidin-4-yl]carbonyl}-1,2,3,4-tetrahydroisoquinoline] — 17-fold lower, 4.09 µM
- COc1cc(OC)c(C2=NOC(C(=O)N3CCc4ccccc4C3)C2)cc1Cl (stereo not drawn) [2-{[3-(5-chloro-2,4-dimethoxyphenyl)-4,5-dihydro-5-isoxazolyl]carbonyl}-1,2,3,4-tetrahydroisoquinoline] — 11-fold lower, 6.59 µM
- CC12CC3(C)CC(C)(C1)CC(C(=O)NC(=S)N1CCCC1)(C2)C3 [3,5,7-trimethyl-N-pyrrolidin-1-ylcarbothioyl-adamantane-1-carboxamide] — 61-fold lower, 1.14 µM
- CCCCCC(=O)Cc1cc(O)cc2c1C(=O)Oc1cc(O)c(C(=O)O)c(CCCCC)c1O2 [3,8-Dihydroxy-11-oxo-1-(2-oxo-heptyl)-6-pentyl-11H-dibenzo[b,e][1,4]dioxepine-7-carboxylic acid] — 17-fold lower, 4.02 µM
- Cc1cc(C(=O)COC(=O)CCc2nc3ccccc3s2)c(C)n1C [3-(1,3-benzothiazol-2-yl)propanoic acid [2-oxo-2-(1,2,5-trimethyl-3-pyrrolyl)ethyl] ester] — within 1.5-fold, 97.3 µM
- Cc1ccc(/C=C2\SC(=S)N(c3c(C)n(C)n(-c4ccccc4)c3=O)C2=O)cc1 [3-(1,5-dimethyl-3-oxo-2-phenyl-2,3-dihydro-1H-pyrazol-4-yl)-5-(4-methylbenzylidene)-2-thioxo-1,3-thiazolidin-4-one] — 540-fold lower, 0.13 µM
- Cc1onc(-c2ccccc2Cl)c1C(=O)NC(=S)Nc1ccc(C(C)C)cc1 [3-(2-chlorophenyl)-5-methyl-N-(p-cumenylthiocarbamoyl)isoxazole-4-carboxamide] — 260-fold lower, 0.271 µM
- O=C(CCSCCc1ccccn1)Nc1ccc(Cc2ccncc2)cc1 [3-(2-pyridin-2-ylethylsulfanyl)-N-[4-(pyridin-4-ylmethyl)phenyl]propanamide] — 7.1-fold lower, 9.8 µM
- O=S(=O)(NC1CCCC1)c1cccc(S(=O)(=O)N2CCC(n3nnc4ccccc43)CC2)c1 [3-(4-Benzotriazol-1-yl-piperidine-1-sulfonyl)-N-cyclopentyl-benzenesulfonamide] — 14-fold lower, 4.9 µM
- O=S1(=O)N=C(N2CCN(Cc3ccccc3)CC2)c2ccccc21 [3-(4-Benzyl-piperazin-1-yl)-benzo[d]isothiazole 1,1-dioxide] — 10-fold lower, 6.74 µM
- O=C(Cn1c(-c2ccc(Cl)cc2)noc1=O)N1CCN(c2ccccc2F)CC1 [3-(4-Chloro-phenyl)-4-{2-[4-(2-fluoro-phenyl)-piperazin-1-yl]-2-oxo-ethyl}-4H-[1,2,4]oxadiazol-5-one] — 3.3-fold higher, 228 µM
- CCN(CC)c1ccc2c(C)c(-c3ccc(N)cc3)c(=O)oc2c1 [3-(4-aminophenyl)-7-(diethylamino)-4-methyl-1-benzopyran-2-one] — 71-fold lower, 0.986 µM
- CCOc1ccc(C(CC(=O)O)NC(=O)C(Sc2ccccc2)c2ccccc2)cc1 (stereo not drawn) [3-(4-ethoxyphenyl)-3-[(2-phenyl-2-phenylsulfanyl-ethanoyl)amino]propanoic acid] — 58-fold higher, 4060 µM
- CS/C(=N\Cc1ccc(F)cc1)NS(=O)(=O)c1cccs1 [3-(4-fluorobenzyl)-2-methyl-1-(2-thienylsulfonyl)isothiourea] — 99-fold lower, 0.702 µM
- O=C(Cn1cnc2c(nnn2Cc2ccc(F)cc2)c1=O)N1CCN(c2ccccc2)CC1 [3-(4-fluorobenzyl)-6-[2-keto-2-(4-phenylpiperazino)ethyl]triazolo[4,5-d]pyrimidin-7-one] — 3.5-fold lower, 20 µM
- Cc1ccc(OCCC(=O)OCC(=O)N2c3ccccc3CC2C)cc1 (stereo not drawn) [3-(4-methylphenoxy)propanoic acid [2-(2-methyl-2,3-dihydroindol-1-yl)-2-oxoethyl] ester] — 18-fold lower, 3.85 µM
- CCOc1ccc2nc(Sc3cc(O)n(-c4cccc(OC)c4)c3O)sc2c1 [3-(6-Ethoxy-benzothiazol-2-ylsulfanyl)-1-(3-methoxy-phenyl)-pyrrolidine-2,5-dione] — 3.5-fold higher, 244 µM

Same assay, conditions: inactive by the depositor's call

Point of comparison: `O=C(/C=C/c1ccccc1)Nc1scc(-c2ccccc2)c1C(=O)O` [2-[[(E)-1-oxo-3-phenylprop-2-enyl]amino]-4-phenyl-3-thiophenecarboxylic acid], EC50 0.134 µM. Against it:
- CC(C)c1ccc(C=NNC(=O)c2ccccc2Cl)cc1 [2-chloranyl-N-[(4-propan-2-ylphenyl)methylideneamino]benzamide] — 340-fold higher, 45.8 µM
- O=C(NC(=S)Nc1ccc(-c2nc3ncccc3o2)cc1)c1ccccc1F [2-fluoranyl-N-[[4-([1,3]oxazolo[4,5-b]pyridin-2-yl)phenyl]carbamothioyl]benzamide] — 13-fold higher, 1.8 µM
- S=c1[nH]nc(-c2cccc(Cl)c2)n1N=Cc1ccco1 [3-(3-chlorophenyl)-4-(furan-2-ylmethylideneamino)-1H-1,2,4-triazole-5-thione] — 450-fold higher, 60.1 µM
